Earlier results on six molecules are cited in patent EP4741436A1, “POLYMERIZABLE COMPOSITION FOR OPTICAL MATERIAL, POLYMERIZABLE PREPOLYMER COMPOSITION FOR OPTICAL MATERIAL, CURED ARTICLE, AND METHOD FOR PRODUCING OPTICAL MATERIAL” (Mitsui Chemicals, Inc., priority 2023, dated 2025).

As a reminder, the pKa is the negative logarithm of the acid dissociation constant.

The conditions of the series: for pKa: organic acids and basic polymerization catalysts, values given in text.

Like-named read-outs stand apart in the source and are kept apart here.

For the molecule `CC1(C)C2CCC1(CS(=O)(=O)O)C(=O)C2` (racemic) [10-camphorsulfonic acid, (±)-10-camphorsulfonic acid], the pKa was 1.2. Also, the “pKa of Organic Acid” value (organic acid used in the composition of the column) is reported as 1.17. Besides, the pKa (listed as (±)-10-camphorsulfonic acid) was 1.17.

Regarding `O=S(=O)(O)c1ccccc1` [benzenesulfonic acid], the pKa is 0.7.

Turning to `CCCCS(=O)(=O)O` [butanesulfonic acid], the pKa was 1.9.

Turning to `CCS(=O)(=O)O` [ethanesulfonic acid], the pKa is listed as 1.8.

As to `CCCS(=O)(=O)O` [propanesulfonic acid], the pKa is recorded as 1.9.

With `C=CS(=O)(=O)O` [vinylsulfonic acid], the pKa is on record as -2.7.
